Residues, ends and D or L forms follow the SMILES beside them. No end group written: not given here.
Tests used:
[1] = biological target: T1, rhCTGF‐His tag protein (Homo sapiens, UniProt P29279); assay: MicroScale Thermophoresis (MST) binding to CTGF; settings: Monolith NT.115, protein labelled with Monolith RED-NHS, 2 × 10^−6 M protein, PBST buffer (PBS, 0.05% Tween-20)
T1 construct: purchased Novoprotein C15W
T1 sequence (P29279 27-349): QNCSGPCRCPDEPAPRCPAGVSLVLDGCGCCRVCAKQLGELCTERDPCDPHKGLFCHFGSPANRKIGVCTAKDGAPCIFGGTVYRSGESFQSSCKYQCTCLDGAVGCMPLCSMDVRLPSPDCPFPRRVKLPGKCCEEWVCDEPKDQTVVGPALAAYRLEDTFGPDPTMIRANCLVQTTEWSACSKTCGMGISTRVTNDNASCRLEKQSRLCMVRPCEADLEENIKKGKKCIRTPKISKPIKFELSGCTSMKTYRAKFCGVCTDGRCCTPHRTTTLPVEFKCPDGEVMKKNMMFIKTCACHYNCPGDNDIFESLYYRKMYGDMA
Experimental: (§1) The affinity between various peptides (CL8, CC14, LT12, CC14S, CE8, FH14S, FH14, and CL8‐M6P3) and purified rhCTGF‐His tag protein (C15W, Novoprotein), IGFBP protein, and TSP proteins, was evaluated using microscale thermophoresis (NanoTemper, Germany). Additionally, the interaction between CL8‐M6P3 and the CCN1, CCN3, and CCN4 proteins was measured using the Dianthus system (NanoTemper, Germany). Prior to measurements, the purified proteins were labeled with fluorescent dye Monolith RED‐NHS (MO‐L011, NanoTemper). For the MST assay, 2 × 10^−6 M proteins (10 µL) were added with variable concentrations of the above peptides in PBST buffer (10 µL, PBS containing 0.05% Tween‐20). After a short incubation, the mixture was loaded into the Monolith NT.115 capillary (MO‐K022, NanoTemper) and analyzed using the Monolith NT.115 (NanoTemper, Germany).

[2] = system: red blood cells; assay: Hemolysis assay; format: cell-based, mice; settings: mouse erythrocytes, 0-30 × 10^−6 M, 1 h, 37 °C, absorbance 570 nm
Experimental: The hemolytic activities of CL8, CL8‐M6P3, and NanoCLY were determined by monitoring hemoglobin release from red blood cells. Fresh erythrocytes were obtained from the whole blood of mice by centrifugation (1000 × g for 30 min at 4 °C), and washed three times with cold 0.9% NaCl. The erythrocytes were dispensed into 96‐well plates, incubated with CL8, CL8‐M6P3 and NanoCLY at specified concentrations (0, 0.3, 1, 3, 10, and 30 × 10^−6 M) for 1 h at 37 °C, centrifuged at 1000 × g for 10 min, the supernatant samples were collected, and the absorbance at 570 nm was measured by microplate reader Cytation 5 (Biotek, USA). The negative control group was defined as the absorbance obtained in 1× PBS (A PBS), and 100% hemolysis in 0.1%Triton X‐100 (v/v) (A Triton). The hemolysis percentage was calculated as: (A peptide − A PBS)/(ATriton − A PBS) × 100%.

[3] = biological target: T2, CCN1 (Homo sapiens, UniProt O00622); assay: Binding to CCN1 (Dianthus system); settings: Figure S7a
T2 sequence (O00622 25-381): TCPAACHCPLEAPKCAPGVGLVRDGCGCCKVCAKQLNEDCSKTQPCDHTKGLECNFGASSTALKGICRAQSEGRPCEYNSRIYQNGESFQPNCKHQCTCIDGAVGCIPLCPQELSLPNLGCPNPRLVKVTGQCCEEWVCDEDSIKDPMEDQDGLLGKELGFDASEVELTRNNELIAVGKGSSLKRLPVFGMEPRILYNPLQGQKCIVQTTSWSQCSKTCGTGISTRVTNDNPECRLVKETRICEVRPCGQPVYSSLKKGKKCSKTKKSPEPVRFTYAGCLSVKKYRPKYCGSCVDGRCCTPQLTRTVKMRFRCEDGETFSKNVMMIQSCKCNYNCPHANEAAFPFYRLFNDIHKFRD
Experimental: as §1

[4] = biological target: T3, CCN3 (Homo sapiens, UniProt P48745); assay: Binding to CCN3 (Dianthus system); settings: Figure S7a
T3 sequence (P48745 32-357): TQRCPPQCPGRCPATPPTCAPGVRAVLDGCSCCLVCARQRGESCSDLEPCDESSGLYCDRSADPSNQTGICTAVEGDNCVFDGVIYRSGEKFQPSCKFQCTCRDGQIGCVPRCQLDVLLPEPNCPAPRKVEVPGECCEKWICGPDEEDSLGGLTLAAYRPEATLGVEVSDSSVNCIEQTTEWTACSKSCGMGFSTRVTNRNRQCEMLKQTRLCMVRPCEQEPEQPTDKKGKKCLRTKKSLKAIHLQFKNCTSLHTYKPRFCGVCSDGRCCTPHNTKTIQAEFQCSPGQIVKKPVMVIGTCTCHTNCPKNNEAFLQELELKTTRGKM
Experimental: as §1

[5] = biological target: T4, CTGF (Homo sapiens, UniProt P29279); assay: ELISA of extracellular CTGF in culture media of TNBC cells; format: cell-based; settings: in vitro, BT549 and MDA-MB-231 culture media, 12 h
T4 construct: endogenous in cells; host or cells: BT549 and MDA-MB-231 (human TNBC cell lines)
T4 sequence (P29279 27-349): T1 sequence (P29279 27-349)
Experimental: BT549 and MDA‐MB‐231 cells were treated with various concentrations of CL8‐M6P3 or NanoCLY for 12 h. Extracellular CTGF protein level in conditioned media was quantified by a human CTGF ELISA kit following the manufacturer's instructions (ab261851, Abcam and CSB‐E07875h, Cusabio). Extracellular CCN1, CCN3, and CCN4 protein levels were quantified using respective ELISA kits (HY‐P7842, HY‐P701327, HY‐P78051, MCE) following the manufacturer's instructions (CSB‐EL015956HU, CSB‐EL026119HU, CSB‐E13884h, Cusabio). Additionally, BSP and β‐CTx levels in serum were quantified by ELISA kit following the manufacturer's instructions (BPE10823, BPE10438, lengton).

[6] = biological target: IGFBP protein (N-terminal domain of CTGF) (Homo sapiens, UniProt P29279); assay: MST binding to IGFBP domain of CTGF; settings: Figure S6b
Experimental: as §1

[7] = biological target: T5, TSP proteins (C-terminal domain of CTGF) (Homo sapiens, UniProt P29279); assay: MST binding to TSP domain of CTGF; settings: Figure S6c
T5 sequence (P29279 198-243 limits assumed): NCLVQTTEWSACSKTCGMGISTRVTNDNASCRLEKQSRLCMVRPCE
Experimental: as §1

[8] = biological target: T6, CCN4 (Homo sapiens, UniProt O95388); assay: Binding to CCN4 (Dianthus system); settings: Figure S7a
T6 sequence (O95388 23-367): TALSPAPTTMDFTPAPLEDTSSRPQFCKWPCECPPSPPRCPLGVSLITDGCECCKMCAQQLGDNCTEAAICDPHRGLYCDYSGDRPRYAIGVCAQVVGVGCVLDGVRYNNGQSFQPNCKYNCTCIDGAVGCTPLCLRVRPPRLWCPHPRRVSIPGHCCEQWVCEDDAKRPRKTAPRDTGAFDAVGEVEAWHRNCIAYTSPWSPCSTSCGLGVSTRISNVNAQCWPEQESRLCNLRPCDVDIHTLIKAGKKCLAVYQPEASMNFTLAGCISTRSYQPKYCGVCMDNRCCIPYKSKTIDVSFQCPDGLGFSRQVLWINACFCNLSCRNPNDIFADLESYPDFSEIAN
Experimental: as §1

[9] = biological target: T7, recombinant human CTGF‐His tag (connective tissue growth factor) (human, UniProt P29279 27-349, labeled with fluorescent dye Monolith RED‐NHS); assay: MST; proteins labeled with Monolith RED-NHS; 2 × 10^-6 M protein (10 µL) mixed with variable concentrations of peptide in PBST (10 µL, PBS with 0.05% Tween-20); Monolith NT.115; settings: both partners purified
T7 construct: connective tissue growth factor (CTGF/CCN2), human, recombinant; also called CCN2; rhCTGF‐His tag protein; source: bought: Novoprotein (C15W), purified
T7 sequence (looked up): T1 sequence (P29279 27-349)

[10] = biological target: T8, recombinant human CTGF‐His tag (connective tissue growth factor) (human), P29279; assay: as above
T8 chain: T1 sequence (P29279 27-349)

In the case of `CC(C)C[C@H](NC(=O)[C@H](Cc1ccc(O)cc1)NC(=O)[C@H](Cc1c[nH]cn1)NC(=O)[C@H](C)NC(=O)[C@H](C)NC(=O)[C@H](CO)NC(=O)[C@@H]1CCCN1C(=O)[C@@H](N)CS)C(N)=O` [CL8, reference compound] (H-CPSAAHYL-NH2), the Kd [1] is reported as 1230 nM and the hemolysis safety [2] is reported as “good hemolysis safety”.

“H-CPSAAHYL-PEG3-[Pra(M6P)βAla]3-NH2 [CL8‐M6P3, peptide-based CTGF-LYTAC: CL8 conjugated to glycopeptide scaffold M6P3 by a PEG3 linker]” was tested, and the “binding interaction with CCN1” value [3] was “no binding interactions”, the “binding interaction with CCN3” value [4] was “no binding interactions” and the “extracellular CTGF degraded” value [5] was “≈ 50%”. For the same molecule, the “interaction with IGFBP domain of CTGF” value [6] was “interacts”, the hemolysis safety [2] was “good hemolysis safety” and the “interaction with TSP domain of CTGF” value [7] was “interacts”. The “binding interaction with CCN4” value [8] was “no binding interactions”.

Work on CPSAAHYL (not fully specified (C-terminus)) [CL8‐M6P3] yielded a Kd [9] of 13400 nM.

In the case of CPSAAHYL (modifications not checked) [CL8 peptide], the Kd [10] is reported as 1230 nM.
